# “And” between values parts separate entries of the source, which are not always exact repeats. Equal values may be shown once.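 Method: 48-hour compound exposure of cells in 96-well plates, five concentrations, linear interpolation of endpoints. GI50: concentration for 50% inhibition of growth.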 The source made the active and inactive calls. Cut-off read from the data, not from the text of the source: active = GI50 up to about 1.1 µM and inactive = higher. Residues, ends and D or L forms follow the SMILES beside them. *: point of attachment. Boc = CC(C)(C)OC(=O)*; OBn = c1ccc(CO*)cc1
# Legend:
# Experiment in all cases: inhibition of tumour cell growth, NCI panel, 48 h
# 786-0 = system: 786-0
# ACHN = system: ACHN
# BT-549 = system: BT-549
# DU-145 = system: DU-145
# HCT-15 = system: HCT-15
# M14 = system: M14
# MCF7 = system: MCF7
# MDA-MB-435 = system: MDA-MB-435
# NCI-H460 = system: NCI-H460
# NCI/ADR-RES = system: NCI/ADR-RES
# OVCAR-5 = system: OVCAR-5
# SF-295 = system: SF-295
# SK-MEL-2 = system: SK-MEL-2
# SNB-75 = system: SNB-75
# SW-620 = system: SW-620
# TK-10 = system: TK-10
# UACC-257 = system: UACC-257
# UACC-62 = system: UACC-62
# Hs-578T = system: Hs-578T
# SK-OV-3 = system: SK-OV-3
Structure (SMILES),GI50 (786-0),GI50 (ACHN),GI50 (BT-549),GI50 (DU-145),GI50 (HCT-15),GI50 (M14),GI50 (MCF7),GI50 (MDA-MB-435),GI50 (NCI-H460),GI50 (NCI/ADR-RES),GI50 (OVCAR-5),GI50 (SF-295),GI50 (SK-MEL-2),GI50 (SNB-75),GI50 (SW-620),GI50 (TK-10),GI50 (UACC-257),GI50 (UACC-62),GI50 (Hs-578T),GI50 (SK-OV-3)
O=C(/C=C/c1ccc(O)c(O)c1)OCCc1cccc2ccccc12,3 µM (inactive),3.78 µM (inactive),7.85 µM (inactive),5.48 µM (inactive),1.28 µM,5.65 µM (inactive),7.31 µM (inactive),2.02 µM (inactive),12.1 µM (inactive),6.15 µM (inactive),14.4 µM (inactive),5.26 µM (inactive),3.44 µM (inactive),2.52 µM (inactive),5.07 µM (inactive),3.4 µM (inactive),11.1 µM (inactive),4.27 µM (inactive),,
C=C(CCOC)CCC1CCCCC(=C)[C@H]1O (some centres undefined),> 100 µM (inactive),> 100 µM (inactive),,> 100 µM (inactive),> 100 µM,> 100 µM (inactive),> 100 µM (inactive),> 100 µM (inactive),> 100 µM (inactive),> 100 µM (inactive),> 100 µM (inactive),> 100 µM (inactive),> 100 µM (inactive),> 100 µM (inactive),> 100 µM (inactive),> 100 µM (inactive),> 100 µM (inactive),> 100 µM (inactive),> 100 µM (inactive),> 100 µM (inactive)
COC(=O)C1OC(O[C@H]2CC[C@]3(C)[C@H]4CC=C5[C@@H]6CC(C)(C)CC[C@]6(C(=O)OC6OCC(O)C(O)C6OC6OC(C)C(OC7OCC(O)C(O)C7O)C(O)C6O)[C@H](O)C[C@@]5(C)[C@]4(C)CC[C@H]3C2(C)C)C(O)C(O)C1O (some centres undefined),5.56 µM (inactive) and 8.55 µM (inactive),4.35 µM (inactive) and 4.5 µM (inactive),,9.73 µM (inactive) and 13.4 µM (inactive),12.9 µM and 13.7 µM,2.75 µM (inactive) and 3.91 µM (inactive),,2.32 µM (inactive) and 1.95 µM (inactive),,4.08 µM (inactive) and 3.24 µM (inactive),4.93 µM (inactive) and 6.59 µM (inactive),3.95 µM (inactive) and 3.91 µM (inactive),2.7 µM (inactive) and 2.9 µM (inactive),4.81 µM (inactive) and 8.53 µM (inactive),13.2 µM (inactive) and 11.7 µM (inactive),8.15 µM (inactive) and 9.68 µM (inactive),2.9 µM (inactive) and 5.79 µM (inactive),,16.4 µM (inactive) and 16.3 µM (inactive),11.4 µM (inactive) and 13.4 µM (inactive)
CC1=C(O)C(=O)C2=C(C1=O)[C@@H]([C@@H](C)C/C=C/C(C)(C)O)CC[C@@H]2C,> 100 µM (inactive),31.4 µM (inactive),,98.6 µM (inactive),31 µM,61 µM (inactive),41.1 µM (inactive),43.2 µM (inactive),55.5 µM (inactive),77.1 µM (inactive),> 100 µM (inactive),44.3 µM (inactive),39.5 µM (inactive),,77.4 µM (inactive),,61.8 µM (inactive),47.4 µM (inactive),48.6 µM (inactive),> 100 µM (inactive)
CC(=O)CC(O)(C(F)(F)Cl)C(F)(F)Cl,> 10 µM (inactive),> 10 µM (inactive),,> 10 µM (inactive),> 10 µM,> 10 µM (inactive),> 10 µM (inactive),> 10 µM (inactive),> 10 µM (inactive),> 10 µM (inactive),,> 10 µM (inactive),> 10 µM (inactive),> 10 µM (inactive),> 10 µM (inactive),> 10 µM (inactive),> 10 µM (inactive),> 10 µM (inactive),> 10 µM (inactive),> 10 µM (inactive)
CC[C@H](CCCC[C@H]1CC[C@@H]2CC(=O)C[C@H]12)OC,> 100 µM (inactive),> 100 µM (inactive),36.9 µM (inactive),,,> 100 µM (inactive),,> 100 µM (inactive),> 100 µM (inactive),47.4 µM (inactive),,65.9 µM (inactive),> 100 µM (inactive),> 100 µM (inactive),,> 100 µM (inactive),43.5 µM (inactive),60 µM (inactive),> 100 µM (inactive),> 100 µM (inactive)
COC(=O)C1=C(O)C(C(=O)OC)[C@]2(O)[C@@H](C(=O)OC)[C@H]1[C@H](C)[C@@H](c1ccccc1)[C@@H]2C(=O)OC (some centres undefined),62.2 µM (inactive),91.8 µM (inactive),38.8 µM (inactive),> 100 µM (inactive),57.8 µM,88.1 µM (inactive),,46.1 µM (inactive),69.2 µM (inactive),40.7 µM (inactive),> 100 µM (inactive),78.2 µM (inactive),96.4 µM (inactive),> 100 µM (inactive),44.3 µM (inactive),> 100 µM (inactive),> 100 µM (inactive),65.5 µM (inactive),,> 100 µM (inactive)
CC12C=CC(C)(C3C(=O)C4C(C(=O)C31)C1(C)C=CC4(C)[S+]1[O-])[S+]2[O-] (centres undefined),51.2 µM (inactive),> 100 µM (inactive),> 100 µM (inactive),> 100 µM (inactive),87.3 µM,> 100 µM (inactive),,,53.1 µM (inactive),64.7 µM (inactive),> 100 µM (inactive),> 100 µM (inactive),,57.5 µM (inactive),,> 100 µM (inactive),71.9 µM (inactive),74 µM (inactive),> 100 µM (inactive),> 100 µM (inactive)
CC1(C)N=C(N)N=C(N)N1c1ccc(OCC(=O)Nc2cccc(S(=O)(=O)F)c2)c(Cl)c1,4.9 µM (inactive),30 µM (inactive),,> 25.1 µM (inactive),9.75 µM,13.9 µM (inactive),6.03 µM (inactive),4.52 µM (inactive),5.48 µM (inactive),59.6 µM (inactive),7.91 µM (inactive),10.2 µM (inactive),> 100 µM (inactive),54.7 µM (inactive),3.71 µM (inactive),7.24 µM (inactive),2.98 µM (inactive),0.676 µM (active),12.2 µM (inactive),> 81.1 µM (inactive)
O=c1c2cc(Br)ccc2oc2ccc(Br)cc12,64.7 µM (inactive),> 100 µM (inactive),> 100 µM (inactive),84.1 µM (inactive),> 100 µM,> 100 µM (inactive),27.5 µM (inactive),> 100 µM (inactive),> 100 µM (inactive),> 100 µM (inactive),> 100 µM (inactive),> 100 µM (inactive),> 100 µM (inactive),24.7 µM (inactive),> 100 µM (inactive),> 100 µM (inactive),> 100 µM (inactive),> 100 µM (inactive),,
CN1CCN(c2ccc3[nH]c(-c4ccc5[nH]c(-c6ccc(N(C)CCCl)cc6)nc5c4)nc3c2)CC1,0.13 µM (active),0.942 µM (active),,0.183 µM (active),12.6 µM,1.08 µM (active),< 0.01 µM (active),0.144 µM (active),0.222 µM (active),40.6 µM (inactive),2.45 µM (inactive),1.76 µM (inactive),0.22 µM (active),0.152 µM (active),0.14 µM (active),2.87 µM (inactive),1.66 µM (inactive),0.15 µM (active),0.206 µM (active),0.196 µM (active)
CNc1ccc2c(c1)Cc1ccccc1-2,53 µM (inactive),35.2 µM (inactive),,31.9 µM (inactive),15.3 µM,34.1 µM (inactive),44.6 µM (inactive),28.3 µM (inactive),32.5 µM (inactive),> 100 µM (inactive),98.6 µM (inactive),47.2 µM (inactive),35.4 µM (inactive),52.6 µM (inactive),53.6 µM (inactive),36.6 µM (inactive),61.1 µM (inactive),26.8 µM (inactive),33.3 µM (inactive),
CC(C)C(NC(=O)CNC(=O)C1CCCN1C(=O)C(NC(=O)OC(C)(C)C)C(C)C)C(=O)NCC(=O)OCc1ccccc1 (centres undefined) (Boc-VPGVG-OBn; configuration not given here),> 100 µM (inactive),> 100 µM (inactive),,> 100 µM (inactive),> 100 µM,> 100 µM (inactive),> 100 µM (inactive),> 100 µM (inactive),> 100 µM (inactive),> 100 µM (inactive),> 100 µM (inactive),> 100 µM (inactive),> 100 µM (inactive),,> 100 µM (inactive),,> 100 µM (inactive),> 100 µM (inactive),80.7 µM (inactive),> 100 µM (inactive)
COc1c2occc2cc2ccc(=O)oc12 [METHOXSALEN],> 100 µM (inactive),> 100 µM (inactive),> 100 µM (inactive),> 100 µM (inactive),> 100 µM,> 100 µM (inactive),> 100 µM (inactive),> 100 µM (inactive),62.7 µM (inactive),,> 100 µM (inactive),> 100 µM (inactive),> 100 µM (inactive),,> 100 µM (inactive),> 100 µM (inactive),> 100 µM (inactive),34.9 µM (inactive),,> 100 µM (inactive)
COC(=O)C1=C(C)NC(C)=C(C(=O)OCCCN2CCC(c3ccccc3)(c3ccccc3)CC2)[C@H]1c1cccc([N+](=O)[O-])c1 [NIGULDIPINE],1.61 µM (inactive),1.66 µM (inactive),,1.86 µM (inactive),1.94 µM,1.69 µM (inactive),2.07 µM (inactive),1.63 µM (inactive),1.81 µM (inactive),1.73 µM (inactive),2.9 µM (inactive),1.73 µM (inactive),2.41 µM (inactive),1.37 µM (inactive),1.92 µM (inactive),2.91 µM (inactive),1.66 µM (inactive),1.61 µM (inactive),1.69 µM (inactive),5.24 µM (inactive)
